# Molecular target: T1, estrogen receptor (Homo sapiens, UniProt P03372)
# T1 construct: endogenous in cells; host or cells: ECC-1 cells
# T1 sequence (P03372 1-595): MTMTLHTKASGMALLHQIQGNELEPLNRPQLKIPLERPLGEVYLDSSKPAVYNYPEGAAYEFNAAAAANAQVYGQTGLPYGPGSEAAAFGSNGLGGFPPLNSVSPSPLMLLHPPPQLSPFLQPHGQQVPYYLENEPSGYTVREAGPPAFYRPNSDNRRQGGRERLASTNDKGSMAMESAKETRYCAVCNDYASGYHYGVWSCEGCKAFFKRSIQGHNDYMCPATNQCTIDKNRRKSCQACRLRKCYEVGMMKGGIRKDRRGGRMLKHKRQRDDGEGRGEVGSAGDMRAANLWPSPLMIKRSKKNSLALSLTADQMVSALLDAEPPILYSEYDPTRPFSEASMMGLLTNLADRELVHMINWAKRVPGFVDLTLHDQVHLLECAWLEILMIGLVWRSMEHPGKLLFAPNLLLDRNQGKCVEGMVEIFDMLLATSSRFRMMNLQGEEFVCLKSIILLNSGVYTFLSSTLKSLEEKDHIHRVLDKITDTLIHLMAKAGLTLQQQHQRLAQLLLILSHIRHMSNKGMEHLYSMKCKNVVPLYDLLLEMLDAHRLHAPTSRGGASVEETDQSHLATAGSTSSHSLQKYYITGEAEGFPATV
# Assay: AP (alkaline phosphatase) assay in ECC-1 cells, agonist mode and antagonist mode
# Format: cell-based
# Details: 3 days, absence of E2 (agonist mode) or 500 pM E2 (antagonist mode), AP activity normalized to 500 pM E2 alone
# Protocol: ECC-1 cells were trypsinized and resuspended in hormone-depleted media and plated at a density of 15 k cells per well into a 96-well plate for at least 4 hours. Cells were treated with test compounds in the absence of E2 (for agonist mode) or in the presence of 500 pM E2 (for antagonist mode) for 3 days and plates were subsequently frozen at −80° C. Thawed plates were incubated with a chromogenic substrate of AP, p-nitrophenyl phosphate (Thermo Fisher Scientific), for 40 minutes at 42° C., and absorbances were read at 405 nm. AP activity was normalized to the activity of 500 pM E2 alone.
# The compound numbers correspond to the compound numbers of Table 1 and 2. Compounds having an activity designated as “+” provided estrogen receptor agonism having (i) at least 80% increase in the E2-normalized signal in the AP assay (agonist mode) and (ii) no more than 80% reduction in the E2-normalized signal in the AP assay (antagonist mode). Compounds having an activity designated as “++” provided estrogen receptor antagonism having (i) between 10% and 80% increase in the E2-normalized signal in the AP assay (agonist mode) and (ii) between 10% and 80% reduction in the E2-normalized signal in the AP assay (antagonist mode).
row,Structure (SMILES),"Activity (estrogen receptor modulation, agonism and antagonism)"
1,"C[C@@H]1Cc2c([nH]c3ccccc23)[C@@H](c2ccc(O[C@@H]3CCN(CCF)C3)s2)N1CC(C)(C)F [Example I-17, (1S,3R)-1-[5-[(3R)-1-(2-fluoroethyl)pyrrolidin-3-yl]oxy-2-thienyl]-2-(2-fluoro-2-methyl-propyl)-3-methyl-1,3,4,9-tetrahydropyrido[3,4-b]indole]",+ (estrogen receptor agonism having (i) at least 80% increase in the E2-normalized signal in the AP assay (agonist mode) and (ii) no more than 80% reduction in the E2-normalized signal in the AP assay (antagonist mode))
2,"C[C@@H]1Cc2c([nH]c3ccccc23)[C@@H](c2ncc(OC3CN(CCCF)C3)s2)N1CC(F)F [Example I-18, 2-[(1S,3R)-2-(2,2-difluoroethyl)-3-methyl-1,3,4,9-tetrahydropyrido[3,4-b]indol-1-yl]-5-[1-(3-fluoropropyl)azetidin-3-yl]oxy-thiazole]",++ (estrogen receptor antagonism having (i) between 10% and 80% increase in the E2-normalized signal in the AP assay (agonist mode) and (ii) between 10% and 80% reduction in the E2-normalized signal in the AP assay (antagonist mode))
3,"C[C@@H]1Cc2c([nH]c3ccccc23)[C@@H](c2ccc(O[C@@H]3CCN(CCCF)C3)s2)N1CC(F)F [Example I-19, (1S,3R)-2-(2,2-difluoroethyl)-1-[5-[(3R)-1-(3-fluoropropyl)pyrrolidin-3-yl]oxy-2-thienyl]-3-methyl-1,3,4,9-tetrahydropyrido[3,4-b]indole]",+++ (estrogen receptor antagonism (i) with pIC50 greater than 7.5 and at least a 10% reduction in the E2-normalized signal in the AP assay (antagonist mode); and no more than 10% increase in E2-normalized signal in the AP assay (agonist mode))
4,"C[C@@H]1Cc2c([nH]c3ccccc23)[C@@H](c2ccc(O[C@@H]3CCN(CCCF)C3)s2)N1CC(F)(F)F [Example I-20, (1S,3R)-1-[5-[(3R)-1-(3-fluoropropyl)pyrrolidin-3-yl]oxy-2-thienyl]-3-methyl-2-(2,2,2-trifluoroethyl)-1,3,4,9-tetrahydropyrido[3,4-b]indole]",++ (estrogen receptor antagonism having (i) between 10% and 80% increase in the E2-normalized signal in the AP assay (agonist mode) and (ii) between 10% and 80% reduction in the E2-normalized signal in the AP assay (antagonist mode))
5,"C[C@@H]1Cc2c([nH]c3ccccc23)[C@@H](c2ccc(OC3CN(CCCF)C3)s2)N1CC(F)(F)F [Example I-21, (1S,3R)-1-[5-[1-(3-fluoropropyl)azetidin-3-yl]oxy-2-thienyl]-3-methyl-2-(2,2,2-trifluoroethyl)-1,3,4,9-tetrahydropyrido[3,4-b]indole]",++ (estrogen receptor antagonism having (i) between 10% and 80% increase in the E2-normalized signal in the AP assay (agonist mode) and (ii) between 10% and 80% reduction in the E2-normalized signal in the AP assay (antagonist mode))
6,"C[C@@H]1Cc2c([nH]c3ccccc23)[C@@H](c2ncc(OC3CN(CCCF)C3)s2)N1CC(F)(F)CO [Example I-22, 2,2-difluoro-3-[(1S,3R)-1-[5-[1-(3-fluoropropyl)azetidin-3-yl]oxythiazol-2-yl]-3-methyl-1,3,4,9-tetrahydropyrido[3,4-b]indol-2-yl]propan-1-ol]",++ (estrogen receptor antagonism having (i) between 10% and 80% increase in the E2-normalized signal in the AP assay (agonist mode) and (ii) between 10% and 80% reduction in the E2-normalized signal in the AP assay (antagonist mode))
7,"C[C@@H]1Cc2c([nH]c3ccccc23)[C@@H](c2cnc(O[C@@H]3CCN(CCCF)C3)s2)N1CC(C)(C)F [Example I-23, 5-[(1S,3R)-2-(2-fluoro-2-methyl-propyl)-3-methyl-1,3,4,9-tetrahydropyrido[3,4-b]indol-1-yl]-2-[(3R)-1-(3-fluoropropyl)pyrrolidin-3-yl]oxy-thiazole]",+++ (estrogen receptor antagonism (i) with pIC50 greater than 7.5 and at least a 10% reduction in the E2-normalized signal in the AP assay (antagonist mode); and no more than 10% increase in E2-normalized signal in the AP assay (agonist mode))
8,"C[C@@H]1Cc2c([nH]c3ccccc23)[C@@H](c2ncc(O[C@@H]3CCN(CCCF)C3)s2)N1CC(F)(F)CO [Example I-24, 2,2-difluoro-3-[(1S,3R)-1-[5-[(3R)-1-(3-fluoropropyl)pyrrolidin-3-yl]oxythiazol-2-yl]-3-methyl-1,3,4,9-tetrahydropyrido[3,4-b]indol-2-yl]propan-1-ol]",++ (estrogen receptor antagonism having (i) between 10% and 80% increase in the E2-normalized signal in the AP assay (agonist mode) and (ii) between 10% and 80% reduction in the E2-normalized signal in the AP assay (antagonist mode))
9,"C[C@@H]1Cc2c([nH]c3ccccc23)[C@@H](c2sc(OC3CN(CCCF)C3)cc2F)N1CC(F)(F)CO [Example I-26, 2,2-difluoro-3-[(1S,3R)-1-[3-fluoro-5-[1-(3-fluoropropyl)azetidin-3-yl]oxy-2-thienyl]-3-methyl-1,3,4,9-tetrahydropyrido[3,4-b]indol-2-yl]propan-1-ol]",+++ (estrogen receptor antagonism (i) with pIC50 greater than 7.5 and at least a 10% reduction in the E2-normalized signal in the AP assay (antagonist mode); and no more than 10% increase in E2-normalized signal in the AP assay (agonist mode))
10,"C[C@@H]1Cc2c([nH]c3ccccc23)[C@@H](c2sc(O[C@@H]3CCN(CCCF)C3)cc2F)N1CC(F)(F)CO [Example I-27, 2,2-difluoro-3-[(1S,3R)-1-[3-fluoro-5-[(3R)-1-(3-fluoropropyl)pyrrolidin-3-yl]oxy-2-thienyl]-3-methyl-1,3,4,9-tetrahydropyrido[3,4-b]indol-2-yl]propan-1-ol]",+++ (estrogen receptor antagonism (i) with pIC50 greater than 7.5 and at least a 10% reduction in the E2-normalized signal in the AP assay (antagonist mode); and no more than 10% increase in E2-normalized signal in the AP assay (agonist mode))
11,"C[C@@H]1Cc2c([nH]c3ccccc23)[C@@H](c2cnc(O[C@@H]3CCN(CCCF)C3)s2)N1CC(F)(F)CO [Example I-28, 2,2-difluoro-3-[(1S,3R)-1-[2-[(3R)-1-(3-fluoropropyl)pyrrolidin-3-yl]oxythiazol-5-yl]-3-methyl-1,3,4,9-tetrahydropyrido[3,4-b]indol-2-yl]propan-1-ol]",+++ (estrogen receptor antagonism (i) with pIC50 greater than 7.5 and at least a 10% reduction in the E2-normalized signal in the AP assay (antagonist mode); and no more than 10% increase in E2-normalized signal in the AP assay (agonist mode))
12,"C[C@@H]1Cc2c([nH]c3ccccc23)[C@@H](c2cnc(O[C@@H]3C[C@H](C)N(CCCF)C3)s2)N1CC(F)(F)CO [Example I-29, 2,2-difluoro-3-((1S,3R)-1-(2-(((3R,5S)-1-(3-fluoropropyl)-5-methylpyrrolidin-3-yl)oxy)thiazol-5-yl)-3-methyl-1,3,4,9-tetrahydro-2H-pyrido[3,4-b]indol-2-yl)propan-1-ol]",+ (estrogen receptor agonism having (i) at least 80% increase in the E2-normalized signal in the AP assay (agonist mode) and (ii) no more than 80% reduction in the E2-normalized signal in the AP assay (antagonist mode))
13,"C[C@@H]1C[C@@H](Oc2ncc([C@@H]3c4[nH]c5ccccc5c4C[C@@H](C)N3CC(F)(F)CO)s2)CN1CCCF [Example I-30, 2,2-difluoro-3-[(1S,3R)-1-[2-[(3R,5R)-1-(3-fluoropropyl)-5-methyl-pyrrolidin-3-yl]oxythiazol-5-yl]-3-methyl-1,3,4,9-tetrahydropyrido[3,4-b]indol-2-yl]propan-1-ol]",+ (estrogen receptor agonism having (i) at least 80% increase in the E2-normalized signal in the AP assay (agonist mode) and (ii) no more than 80% reduction in the E2-normalized signal in the AP assay (antagonist mode))
14,"C[C@@H]1Cc2c([nH]c3ccccc23)[C@@H](c2cnc(OC3CN(CCCF)C3)s2)N1CC(F)(F)CO [Example I-31, 2,2-difluoro-3-[(1S,3R)-1-[2-[1-(3-fluoropropyl)azetidin-3-yl]oxythiazol-5-yl]-3-methyl-1,3,4,9-tetrahydropyrido[3,4-b]indol-2-yl]propan-1-ol]",++ (estrogen receptor antagonism having (i) between 10% and 80% increase in the E2-normalized signal in the AP assay (agonist mode) and (ii) between 10% and 80% reduction in the E2-normalized signal in the AP assay (antagonist mode))
